pKi: −log10 of the molar value.
Experiments:
sigma receptors [1] = biological target: T1, sigma receptors (Cavia porcellus, UniProt Q60492); assay: sigma receptor binding, [^3 H](+)-pentazocine; set-up: species or system guinea pig; conditions: approximately 0.5 nM radioligand, 37° C., 150 min; for inhibition at 10 µM: percent (%) inhibition of binding at 10 μM, guinea pig brain membranes; for pKi: mean of at least two separate determinations performed in triplicate
T1 construct: Brain tissue was prepared from male Hartley guinea pigs; tissue Hazelton Labs; host or cells: brain membranes of male Hartley guinea pigs
T1 sequence (Q60492 whole entry): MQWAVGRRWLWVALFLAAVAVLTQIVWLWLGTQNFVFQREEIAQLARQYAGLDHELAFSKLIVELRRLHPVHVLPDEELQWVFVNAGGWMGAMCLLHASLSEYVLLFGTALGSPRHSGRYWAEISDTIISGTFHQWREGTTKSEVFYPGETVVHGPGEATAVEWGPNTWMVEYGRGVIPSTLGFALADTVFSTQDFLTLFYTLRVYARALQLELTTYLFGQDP
Protocol: (§1) Brain tissue was prepared from male Hartley guinea pigs (Hazelton Labs, Denver, Pa.) which were anesthetized with CO2 and sacrificed by decapitation. All animal care and use procedures were in accord with the "Guide for the Care and Use of Laboratory Animals" (NIH Publ. No. 86-23, 1985). Homogenization was performed in 10 volumes (wt/vol) of 0.32M sucrose with a Brinkmann Polytron at setting 5, 30 sec. The homogenate was centrifuged at 900 x g for 10 min at 4° C., and the supernatant was collected and centrifuged at 22,000 x g for 20 min at 4° C. The pellet was resuspended in 10 volumes of Tris-HCl buffer (50 mM, pH 7.4), incubated at 37° C. for 30 min, and centrifuged at 22,000 x g for 20 min at 4° C. Following this, the pellet was resuspended in Tris buffer and frozen in 5-10 mL aliquots corresponding to a tissue concentration of 100 mg/mL, at -70° C. Binding characteristics of the membranes were stable for at least one month when stored at -70° C.
On the day of the assay, membrane aliquots were thawed, resuspended in fresh Tris-HCl buffer and stored on ice until use. Each assay tube contained 100 μL of [^3 H]-(+)-pentazocine at a final concentration of approximately 0.5 nM or 100 μL of [^3 H]di(2-tolyl)guanidine (DTG) at a final concentration of approximately 4 nM, 100 μL of various concentrations of the compounds of interest, 500 μL of the tissue suspension and 300 μL of buffer to a final assay volume of 1 mL and a final tissue concentration of approximately 8 mg/tube, corresponding to approximately 0.15 mg protein/tube. Non-specific binding was defined by addition of a final concentration of 1 μM haloperidol to blank tubes for [^3 H](+)-pentazocine assay or by addition of a final concentration of 10 μM haloperidol to blank tubes for [^3 H]DTG assay. All tubes were incubated at 37° C. for 150 min in the [^3 H](+)-pentazocine assay or at 25° C. for 90 min in the [^3 H]DTG assay before termination of the reaction by rapid filtration over Whatman GF/B glass fiber filters that were presoaked in a solution of 0.5% polyethyleneimine for at least 1 hr prior to use. Filters were washed with three 4 ml volumes of cold Tris-HCl buffer.
Following addition of scintillation cocktail, samples were allowed to equilibrate for at least 4 hr. The amount of bound radioactivity was determined by liquid scintillation spectrometry using a Beckman LS 5000 TA liquid scintillation counter with an efficiency for tritium of approximately 60%. The results are reported as a percent (%) inhibition of binding at 10 μM.
(§2) Scatchard parameters and inhibition constants (Ki values) for the binding of test compounds were also calculated using the EBDA/LIGAND program (McPherson, J Pharmacol. Meth. 1985, 14, 213-228), purchased from Elsevier/Biosoft, Inc. The Ki values are expressed as the mean of at least two separate determinations performed in triplicate.

sigma receptors [2] = assay: sigma receptor binding, [^3 H]di(2-tolyl)guanidine (DTG); set-up: species or system guinea pig; conditions: approximately 4 nM radioligand, 25° C., 90 min
Protocol: as §1, with “Following this, the pellet was resuspended in Tris buffer and frozen in 5-10 mL aliquots corresponding to a tissue concentration of 100 mg/mL, at -70° C. Binding characteristics of the membranes were stable for at least one month when stored at -70° C.” left out
Following addition of scintillation cocktail, samples were allowed to equilibrate for at least 4 hr. The amount of bound radioactivity was determined by liquid scintillation spectrometry using a Beckman LS 5000 TA liquid scintillation counter with an efficiency for tritium of approximately 60%. […]
as §2

inhibition at 10 µM (sigma receptors [1]) [%] | SMILES | other results
57 | C[C@@H]1CCN(C)[C@@H](C)[C@]1(C)CCNC1CCCC1 (relative stereo) [Example 1c, N-cyclopentyl-1,2,3,4-tetramethyl-3-piperidineethanamine] | 
83 | C[C@@H]1CCN(Cc2ccccc2)[C@@H](C)[C@]1(C)CCN (relative stereo) [Example 2b, 2,3,4-trimethyl-1-(phenylmethyl)-3-piperidineethanamine] | 
90 | C[C@@H]1CCN(C)[C@@H](C)[C@]1(C)CCN(C)C1CCCC1 (relative stereo) [Example 3, N-cyclopentyl-N-1,2,3,4-pentamethyl-3-piperidineethanamine] | 
 | C[C@@H]1CCN(C)[C@@H](C)[C@]1(C)CCN(C)C (relative stereo) [Example 4, N,N-1,2,3,4-hexamethyl-3-piperidineethanamine] | pKi (sigma receptors [1]): 4.62; [^3 H]DTG Percent Inhibition (sigma receptors [2]; percent (%) inhibition of binding at 10 μM, guinea pig brain membranes): 20%
79 | C[C@@H]1CCN(C)[C@@H](C)[C@]1(C)CCNC(=O)c1ccsc1 (relative stereo) [Example 5, N-[2-(1,2,3,4-tetramethyl-3-piperidinyl)-ethyl]-3-thiophenecarboxamide] | 
69 | CCOC(=O)NCC[C@]1(C)[C@H](C)CCN(C)[C@H]1C (relative stereo) [Example 6, ethyl-2-(1,2,3,4-tetramethyl-3-piperidinyl)ethyl carbamate] | 
 | C[C@@H]1CCN(C)[C@@H](C)[C@]1(C)CCN1CCCC1 (relative stereo) [Example 10, 1,2,3,4-tetramethyl-3-[2-(1-pyrrolidinyl)ethyl]piperidine] | pKi (sigma receptors [1]): 5.22; pKi (sigma receptors [2]; mean of at least two separate determinations performed in triplicate): 5.12

SMILES | inhibition at 10 µM (sigma receptors [1]) [%] | other results
C[C@@H]1CCN(C)[C@@H](C)[C@]1(C)CCN(C)C(=O)Cc1ccc(Cl)c(Cl)c1 (relative stereo) [Example 7b, 3,4-dichloro-N-methyl-N-[2-(1,2,3,4-tetramethyl-3-piperidinyl)ethyl]benzeneacetamide] | 94 | 

— US5290796A, “Substituted 3-piperidinealkanamines and alkanamides and compositions and method of use thereof” (Sterling Winthrop Inc., priority 1992, dated 1994)
